Data on 15 molecules can be found in PubChem BioAssay (NCI).

Among the test systems are 786-0 renal; OVCAR-8 ovarian; HCT-116 colon; SN12C renal; SK-MEL-28 melanoma; K-562 leukemia; LOX IMVI melanoma; NCI-H460 lung; HS 578T breast; RPMI-8226 leukemia.
Assay in all cases: DTP human tumour cell line panel, 48 h

Molecules are shown by their SMILES.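 Each compound was tested at five concentrations against cells in 96-well plates for 48 hours. TGI is the concentration that stops growth completely.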 Some results are limits rather than exact numbers.

As to `CC(C)OP(=O)(CN(C)/C(F)=N\C(F)(F)F)OC(C)C`, the TGI with 786-0 renal, in the experiment on OVCAR-8 ovarian, in the experiment on HCT-116 colon, with SN12C renal, with SK-MEL-28 melanoma and with K-562 leukemia was over 100 µM in each case. The total growth inhibition concentration (TGI) in the experiment with LOX IMVI melanoma, in the experiment on NCI-H460 lung and in the experiment with HS 578T breast was over 100 µM each time.
Consider `CC(C)C(C/C=C1/CC(CO)(COC(=O)CC(C(C)C)C(C)C)OC1=O)C(C)C` (centres undefined), for which the TGI was 23.3 µM in the experiment on 786-0 renal; 29.7 µM in the experiment on OVCAR-8 ovarian; 35.1 µM with HCT-116 colon; 31.9 µM in the experiment with SN12C renal; 27.7 µM with SK-MEL-28 melanoma; over 36.3 µM in the experiment on K-562 leukemia. The values for the total growth inhibition concentration (TGI) with LOX IMVI melanoma, with NCI-H460 lung and in the experiment on HS 578T breast were 20.8 µM, 20 µM and 2.29 µM, respectively.
Take `CCOP(=O)(/C=C\n1cnc2c(=O)n(C(C)=O)c(N)nc21)OCC`: the TGI in the experiment on 786-0 renal, in the experiment with OVCAR-8 ovarian, in the experiment on HCT-116 colon, in the experiment on SN12C renal, in the experiment with SK-MEL-28 melanoma and in the experiment with K-562 leukemia was over 100 µM each time. The TGI in the experiment on RPMI-8226 leukemia, in the experiment with LOX IMVI melanoma and in the experiment on NCI-H460 lung was over 100 µM throughout.
As to `CCOc1ccccc1/C=C1\NC(=O)N(/C=C2\C(=O)Oc3ccccc3C2=O)C1=O`, the concentration for total growth inhibition (TGI) in the experiment with 786-0 renal, in the experiment on OVCAR-8 ovarian, with HCT-116 colon, with SN12C renal, in the experiment with SK-MEL-28 melanoma and in the experiment with LOX IMVI melanoma was over 100 µM in each case. In addition, the concentration for total growth inhibition (TGI) in the experiment with NCI-H460 lung and in the experiment with HS 578T breast was over 100 µM each time.
On to `CC1(O)CC2C(CC1SCCO)C2(C)C` (centres undefined), for which the TGI in the experiment with 786-0 renal, with OVCAR-8 ovarian, with HCT-116 colon, with SN12C renal, with SK-MEL-28 melanoma and with K-562 leukemia was over 100 µM throughout. In addition, the TGI in the experiment on RPMI-8226 leukemia and with NCI-H460 lung was over 100 µM each time.
In the case of `COC(=O)CC1(CNC(=O)OCc2ccccc2)OCCO1`, the TGI in the experiment with 786-0 renal, with OVCAR-8 ovarian, with HCT-116 colon, in the experiment with SN12C renal, in the experiment with SK-MEL-28 melanoma and in the experiment on K-562 leukemia was over 100 µM each time. Moreover, the TGI with RPMI-8226 leukemia, in the experiment with LOX IMVI melanoma and in the experiment with NCI-H460 lung was over 100 µM each time.
As to `CCOc1ccc2c(c1)/C(=C(\C(Cl)=C(Cl)Cl)[N+](=O)[O-])N2`, the TGI in the experiment on 786-0 renal, in the experiment on OVCAR-8 ovarian, with HCT-116 colon, with SN12C renal, with SK-MEL-28 melanoma and with K-562 leukemia was over 100 µM throughout. Further, the TGI in the experiment with RPMI-8226 leukemia, in the experiment on NCI-H460 lung and with HS 578T breast was over 100 µM each time.
For `N#Cc1c(-c2ccccc2)/c(=C\O)c(=O)n2c1nc1ccccc12`, the TGI in the experiment with 786-0 renal, with OVCAR-8 ovarian, in the experiment on HCT-116 colon, in the experiment on SN12C renal, with SK-MEL-28 melanoma and with K-562 leukemia was over 100 µM each time. Besides, the TGI in the experiment with RPMI-8226 leukemia was over 100 µM; in the experiment with NCI-H460 lung, over 100 µM; in the experiment on HS 578T breast, 91.8 µM.
Consider `C=C1c2c(cc3c(c2O)c(=O)c2ccccc2n3C)OC1(C)C`, for which the total growth inhibition concentration (TGI) in the experiment on OVCAR-8 ovarian, in the experiment on SN12C renal, with SK-MEL-28 melanoma, with RPMI-8226 leukemia, with LOX IMVI melanoma and with NCI-H460 lung was over 100 µM each time.
Turning to `NC(=O)CCC(NCc1c2ccccc2[n+]([O-])c2ccccc12)C(=O)O` (centres undefined), the TGI with 786-0 renal, with OVCAR-8 ovarian, in the experiment with HCT-116 colon, in the experiment on SN12C renal, in the experiment with SK-MEL-28 melanoma and with K-562 leukemia was over 100 µM each time. Also, the TGI with RPMI-8226 leukemia, in the experiment with LOX IMVI melanoma and with NCI-H460 lung was over 100 µM in each case.
For `O=C(Cn1nc(Br)c(Br)c1Br)c1ccccc1`, the concentration for total growth inhibition (TGI) in the experiment on 786-0 renal was 77.4 µM; in the experiment on OVCAR-8 ovarian, over 100 µM; with HCT-116 colon, 38.6 µM; in the experiment on SN12C renal, over 100 µM; with SK-MEL-28 melanoma, over 100 µM; in the experiment on K-562 leukemia, 28.7 µM. Further, the total growth inhibition concentration (TGI) was 32.2 µM in the experiment with LOX IMVI melanoma, 63.9 µM in the experiment on NCI-H460 lung and over 100 µM in the experiment with HS 578T breast.
Regarding `O=C(/C=C/c1ccc(O)c(O)c1)OCCc1cccc2ccccc12`, the TGI in the experiment on 786-0 renal came out at 12.7 µM; with OVCAR-8 ovarian, 19.9 µM; with HCT-116 colon, 14.6 µM; in the experiment on SN12C renal, 7.96 µM; in the experiment on SK-MEL-28 melanoma it was 16.9 µM; in the experiment with K-562 leukemia, 9.08 µM. Besides, the total growth inhibition concentration (TGI) in the experiment on RPMI-8226 leukemia is 20.5 µM; with NCI-H460 lung, 29.9 µM.
On to `Cc1ccc(C(=O)C(C)N)cc1` (centres undefined), for which the TGI with 786-0 renal, with OVCAR-8 ovarian, in the experiment with HCT-116 colon, in the experiment on SN12C renal, with SK-MEL-28 melanoma and in the experiment with K-562 leukemia was over 100 µM throughout. Further, the TGI in the experiment with RPMI-8226 leukemia, in the experiment with LOX IMVI melanoma and in the experiment with NCI-H460 lung was over 100 µM each time.
Turning to `O=C(NO)c1coc2ccccc2c1=O`, the TGI with OVCAR-8 ovarian, in the experiment on SN12C renal, in the experiment with SK-MEL-28 melanoma, in the experiment on K-562 leukemia, in the experiment with RPMI-8226 leukemia and in the experiment on LOX IMVI melanoma was over 100 µM each time.
Turning to `CCC1CC2CN3CCc4c([nH]c5c(-c6c(OC)ccc7c8c([nH]c67)[C@]6(C(=O)OC)CC7CC(CC)C6N(CC8)C7)c(O)ccc45)[C@](C(=O)OC)(C2)C13` (some centres undefined), the concentration for total growth inhibition (TGI) with 786-0 renal was found to be 28 µM; with OVCAR-8 ovarian it was 49.7 µM; in the experiment on HCT-116 colon, 25.7 µM; in the experiment on SK-MEL-28 melanoma it was 29.9 µM; in the experiment with K-562 leukemia, 27 µM; with LOX IMVI melanoma, 28 µM. The molecule also registered a TGI in the experiment on NCI-H460 lung of 29.2 µM.
